Where two headings read alike, the source gives them in different places.
Columns and labels:
BCL-2β mRNA = test: qPCR analysis of BCL-2β mRNA in healthy donor PBMCs treated ex vivo with ABT-199; assay type: cell-based, human; conditions: 1 µM; for BCL-2β mRNA levels: 2–4 h post-treatment
Description: PBMCs from the trial patients or healthy donors were isolated from whole blood using Lymphoprep™ ([…] Technologies, Cat. #07801) following the manufacturer’s protocol. Whole blood was diluted 1:1 with room temperature phosphate-buffered saline (PBS) containing 2% fetal bovine serum (FBS) and carefully layered over an equal volume of Lymphoprep™ in a 50 mL conical tube. Samples were centrifuged at 800 × g for 20–30 min at room temperature with the brake off. The PBMC layer formed at the interface between the plasma and Lymphoprep™ was gently collected and transferred to a new tube. Cells were washed once with PBS containing 2% FBS by centrifugation at 300 × g for 10 min, and the final pellet was resuspended in DMEM media for downstream culture.
ABT-199 (S8048, Selleck Chemicals) was dissolved in DMSO. Healthy donor PBMCs were seeded at a density of 2 × 10⁶ cells per 60 mm dish and treated with 1 μM of ABT-199 for various time intervals (i.e., 2, 4, 8, and 24 h). At the end of each time point, PBMCs were harvested for protein and RNA extraction (below). All treatments were performed in 3–6 biological replicates and control samples were treated with vehicle (DMSO) only.
We developed a qPCR-based strategy to quantitatively analyze the BCL-2α/β mRNA levels in control and ABT-199 treated PBMCs (above). Briefly, total RNA was extracted using the PicoPure™ RNA Isolation Kit (Thermo Fisher Scientific, cat# KIT0204) with on-column DNase treatment. cDNA was synthesized from 750 ng RNA using SuperScript™ IV VILO™ Master Mix (Thermo Fisher Scientific, cat# 11,756,050). Quantitative PCR was performed using TaqMan Gene Expression Assays (Bio-Rad) with a FAM-conjugated custom probe specific for the BCL-2β isoform (5’-[…]-3’; Bio-Rad, part# 10,031,261). […] Reactions were run on the QuantStudio™ 6 Flex Real-Time PCR System (Applied Biosystems) under standard cycling conditions. Relative expression was calculated using the 2^–ΔΔCt method normalized to the 0-h (untreated) control. All conditions were tested in technical triplicates from 3–6 independent experiments.

[1] = Venetoclax plasma PK in combination with enzalutamide (LC–MS/MS, non-compartmental); assay type: in vivo, human; conditions: for half-life: read-out: D1 t½ (converted); for AUC(0-inf): read-out: D1 AUC0-inf; for Tmax: read-out: D1 Tmax
Description: A volume of 50 μL of the standard, QC, or sample plasma was pipetted into a microfuge tube and 10 μL of internal standard (IS; 500 ng/mL ^2H7-venetoclax) was added to each. Next, 200 μL of acetonitrile was added followed by vortexing for 30 s. Samples were centrifuged at 17,200 × g at room temperature for 10 min. Supernatants were transferred to autosampler vials, followed by injection of 5 μL into the LC–MS/MS system. The LC system consisted of an Exion autosampler with binary pump (Sciex, Framingham, MA, USA), Synergi Polar-RP C18 (4 µm, 2.1 × 50 mm) column kept at 30 °C. The autosampler temperature was also kept at 10 °C. Mobile phase solvent A consisted of 0.1% formic acid in water and mobile phase solvent B consisted of 0.1% formic acid in acetonitrile, mixed at 60% B. A. flow rate of 0.4 mL/min between 0–3 min and 1 mL/min from 3–5 min. Retention time of venetoclax was 1.7 min. MS detection was carried out using an ABI SCIEX (Concord, ON, Canada) 4500 tandem mass spectrometer with electrospray ionization in positive multiple reaction monitoring (MRM) mode, monitoring m/z transitions: 868.40 > 836.3 for venetoclax and 875.4 > 643.3 for venetoclax IS. QC based accuracies (N = 6, each of 3 days) were 100.9–106.2%. The intra- and inter-assay precisions were < 10.6% and < 2.4%.

CLL = conditions: cited from earlier work
[2] = Total (N = 10), venetoclax 400–800 mg with enzalutamide 160 mg/d, geometric mean (geometric SD)
[3] = Total (N = 10), venetoclax 400–800 mg with enzalutamide 160 mg/d, geometric mean (geometric SD), listed as Venetoclax
[4] = male, human, plasma, oral, 400 mg
[5] = male, human, plasma, oral, 600 mg
[6] = male, human, plasma, oral, 800 mg
[7] = venetoclax 400 mg (N = 3) with enzalutamide 160 mg/d, plasma, geometric mean (geometric SD)
[8] = venetoclax 600 mg (N = 3) with enzalutamide 160 mg/d, plasma, geometric mean (geometric SD)
[9] = venetoclax 800 mg (N = 4) with enzalutamide 160 mg/d, plasma, geometric mean (geometric SD)

CC1(C)CCC(CN2CCN(c3ccc(C(=O)NS(=O)(=O)c4ccc(NCC5CCOCC5)c([N+](=O)[O-])c4)c(Oc4cnc5[nH]ccc5c4)c3)CC2)=C(c2ccc(Cl)cc2)C1 [venetoclax]
BCL-2β mRNA levels (BCL-2β mRNA): induced
BCL-2β mRNA levels (BCL-2β mRNA; listed as Venetoclax): increased significantly
BCL-2β mRNA (BCL-2β mRNA; ≥ 24 h post treatment): undetectable
D1 Cl/F [1, 2]: approximately 42 L/h
D1 Cmax/Dose [1, 2]: 1.54 (1.54) µg/L/mg
D1 Tmax [1, 2]: 6.0 (1.3) h
D15 Cmin [1, 2]: 188 (2.17) µg/L
D1 Cl/F [1, 3]: 42.1 (1.76) L/h
D1 t½ [1, 3]: 8.9 (1.6) h
Ratio D29/D1 (day 29 AUC0–24 over day 1 AUC0-inf) ([1]; Total, venetoclax 400–800 mg with enzalutamide 160 mg/d, geometric mean (geometric SD)): 0.77 (2.90)
Variability of the ratio of day 29 AUC0–24 over day 1 AUC0-inf ([1]; corresponding to geometric SD 2.90): 190 %CV
AUC(0-t) ([1]; human, plasma, oral, 800 mg, venetoclax 800 mg with enzalutamide 160 mg/d, plasma, N = 1 on D29, read-out: D29 AUC0-24): 8870 ng·h/mL
Cmax ([1]; human, plasma, oral, 800 mg, venetoclax 800 mg with enzalutamide 160 mg/d, plasma, N = 1 on D29, read-out: D29 Cmax): 1000 ng/mL
Increase in venetoclax apparent clearance ([1]; in combination with enzalutamide, versus previously reported values): 2–threefold
clearance ([1]; male, human, plasma, oral): ~700 mL/min
AUC(0-t) ([1]; male, human, plasma, oral, 400 mg, venetoclax 400 mg (N = 3) with enzalutamide 160 mg/d, plasma, geometric mean (geometric SD), read-out: D1 AUC0-last): 8020 ng·h/mL
Cmax ([1]; male, human, plasma, oral, 400 mg, venetoclax 400 mg (N = 3) with enzalutamide 160 mg/d, plasma, geometric mean (geometric SD), read-out: D1 Cmax): 658 ng/mL
half-life ([1]; male, human, plasma, oral, 400 mg, venetoclax 400 mg (N = 3) with enzalutamide 160 mg/d, plasma, geometric mean (geometric SD)): 11 h
AUC(0-t) ([1]; male, human, plasma, oral, 400 mg, venetoclax 400 mg (N = 3) with enzalutamide 160 mg/d, plasma, geometric mean (geometric SD), read-out: D29 AUC0-24): 10500 ng·h/mL
Cmax ([1]; male, human, plasma, oral, 400 mg, venetoclax 400 mg (N = 3) with enzalutamide 160 mg/d, plasma, geometric mean (geometric SD), read-out: D29 Cmax): 968 ng/mL
AUC(0-inf) [1, 4]: 11100 ng·h/mL
Tmax [1, 4]: 5.2 h
AUC(0-t) ([1]; male, human, plasma, oral, 600 mg, venetoclax 600 mg (N = 3) with enzalutamide 160 mg/d, plasma, geometric mean (geometric SD), read-out: D1 AUC0-last): 12200 ng·h/mL
Cmax ([1]; male, human, plasma, oral, 600 mg, venetoclax 600 mg (N = 3) with enzalutamide 160 mg/d, plasma, geometric mean (geometric SD), read-out: D1 Cmax): 1170 ng/mL
half-life ([1]; male, human, plasma, oral, 600 mg, venetoclax 600 mg (N = 3) with enzalutamide 160 mg/d, plasma, geometric mean (geometric SD)): 6.6 h
AUC(0-t) ([1]; male, human, plasma, oral, 600 mg, venetoclax 600 mg (N = 3) with enzalutamide 160 mg/d, plasma, geometric mean (geometric SD), read-out: D29 AUC0-24): 9110 ng·h/mL
Cmax ([1]; male, human, plasma, oral, 600 mg, venetoclax 600 mg (N = 3) with enzalutamide 160 mg/d, plasma, geometric mean (geometric SD), read-out: D29 Cmax): 554 ng/mL
AUC(0-inf) [1, 5]: 14600 ng·h/mL
Tmax [1, 5]: 5.6 h
AUC(0-t) ([1]; male, human, plasma, oral, 800 mg, venetoclax 800 mg (N = 4) with enzalutamide 160 mg/d, plasma, geometric mean (geometric SD), read-out: D1 AUC0-last): 8760 ng·h/mL
Cmax ([1]; male, human, plasma, oral, 800 mg, venetoclax 800 mg (N = 4) with enzalutamide 160 mg/d, plasma, geometric mean (geometric SD), read-out: D1 Cmax): 979 ng/mL
half-life ([1]; male, human, plasma, oral, 800 mg, venetoclax 800 mg (N = 4) with enzalutamide 160 mg/d, plasma, geometric mean (geometric SD)): 9.4 h
AUC(0-inf) [1, 6]: 16600 ng·h/mL
Tmax [1, 6]: 6.9 h
Cmax ([1]; male, human, plasma, oral, Total (N = 10), venetoclax 400–800 mg with enzalutamide 160 mg/d, geometric mean (geometric SD), read-out: D1 Cmax): 917 ng/mL
half-life ([1]; male, human, plasma, oral, Total (N = 10), venetoclax 400–800 mg with enzalutamide 160 mg/d, geometric mean (geometric SD)): ~9 h
Cmax ([1]; male, human, plasma, oral, Total, venetoclax 400–800 mg with enzalutamide 160 mg/d, N = 3, 3, and 1 on D29, geometric mean (geometric SD), read-out: D29 Cmax): 765 ng/mL
Ratio D29/D1 (day 29 AUC0–24 over day 1 AUC0-inf) ([1]; venetoclax 400 mg (N = 3) with enzalutamide 160 mg/d, geometric mean (geometric SD)): 0.95 (1.99)
D1 Cl/F [1, 7]: 36.2 (1.27) L/h
D1 Cmax/Dose [1, 7]: 1.64 (1.29) µg/L/mg
D15 Cmin [1, 7]: 180 (1.72) µg/L
Ratio D29/D1 (day 29 AUC0–24 over day 1 AUC0-inf) ([1]; venetoclax 600 mg (N = 3) with enzalutamide 160 mg/d, geometric mean (geometric SD)): 0.62 (5.32)
D1 Cl/F [1, 8]: 41.2 (1.65) L/h
D1 Cmax/Dose [1, 8]: 1.95 (1.79) µg/L/mg
D15 Cmin [1, 8]: 214 (2.30) µg/L
D1 Cl/F [1, 9]: 48.1 (2.31) L/h
D1 Cmax/Dose [1, 9]: 1.22 (1.50) µg/L/mg
D15 Cmin [1, 9]: 177 (2.89) µg/L
Ratio D29/D1 (day 29 AUC0–24 over day 1 AUC0-inf) ([1]; venetoclax 800 mg with enzalutamide 160 mg/d, N = 1 on D29): 0.79
Interpatient variability in Cmin ([1]; venetoclax, approximated from geometric SD (2.17–1)*100): ~117 %CV
Intrapatient variability in Cmin ([1]; venetoclax, from day 8 through 57, across doses): 51 %CV
Average steady-state venetoclax concentration required for a 50% tumor shrinkage (CLL): 146 µg/L
Average steady-state venetoclax concentration that decreases lymphocyte counts by 50% from baseline (CLL): 8.63 µg/L
Extension of PFS with a doubling of dose (CLL): 6 months

From publication PMC12662848 (Cancer Chemotherapy and Pharmacology, 2025)
